Assay results: the supplement of paper PMC10307832

Columns and labels:
Experiment in all cases: relative viability (nuclei count vs DMSO), 5 days (fraction); higher = more cells survive
[1] = compound: C1=CC=C2C(=C1)N=C(S2)C(C#N)C3=NC(=NC=C3)NCCC4=CN=CC=C4 + C[C@@H](Oc1cc(-c2cnn(C3CCNCC3)c2)cnc1N)c1c(Cl)ccc(F)c1Cl [Crizotinib] (partner 1 µM)
Method in brief: (§1)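 Each reported value is a median over duplicate plates. It expresses relative viability: treated-well nuclei count divided by vehicle-well nuclei count. Lung cancer cell lines in 1536-well plates were dosed by pin tool a day after seeding, alone with one drug or with a fixed anchor-drug dose plus five library-drug doses (not always all listed) in √10 steps, and nuclei were counted after 5 days.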

Vandetanib + Trametinib = compound: COc1cc2/c(=N/c3ccc(Br)cc3F)nc[nH]c2cc1OCC1CCN(C)CC1 [Vandetanib] + CC(=O)Nc1cccc(-n2c(=O)n(C3CC3)c(=O)c3c(Nc4ccc(I)cc4F)n(C)c(=O)c(C)c32)c1 [Trametinib] (partner 0.02 µM)
Method in brief: as §1

CUDC-101 + Olaparib = compound: C#Cc1cccc(Nc2ncnc3cc(OC)c(OCCCCCCC(=O)NO)cc23)c1 [CUDC-101] + O=C(c1cc(Cc2n[nH]c(=O)c3ccccc23)ccc1F)N1CCN(C(=O)C2CC2)CC1 [Olaparib] (partner 8 µM)
Method in brief: as §1

NVP-TAE684 + Olaparib = compound: COc1cc(N2CCC(N3CCN(C)CC3)CC2)ccc1Nc1ncc(Cl)c(Nc2ccccc2S(=O)(=O)C(C)C)n1 [NVP-TAE684] + O=C(c1cc(Cc2n[nH]c(=O)c3ccccc23)ccc1F)N1CCN(C(=O)C2CC2)CC1 [Olaparib] (partner 8 µM)
Method in brief: as §1

UMC-11 was tested, and the relative viability ([1]; first compound 0.005 µM) was 0.487, the relative viability ([1]; first compound 0.01581 µM) was 0.561 and the relative viability ([1]; first compound 0.05 µM) was 0.602. For the same cell line, the relative viability ([1]; first compound 0.1581 µM) was 0.654, the relative viability ([1]; first compound 0.5 µM) was 0.5 and the relative viability (Vandetanib + Trametinib; first compound 0.02 µM) was 0.82. It also gave a relative viability (Vandetanib + Trametinib; first compound 0.06325 µM) of 0.674, a relative viability (Vandetanib + Trametinib; first compound 0.2 µM) of 0.627 and a relative viability (Vandetanib + Trametinib; first compound 0.6325 µM) of 0.632. It also gave a relative viability (Vandetanib + Trametinib; first compound 2 µM) of 0.583, a relative viability (CUDC-101 + Olaparib; first compound 0.01 µM) of 0.29 and a relative viability (CUDC-101 + Olaparib; first compound 0.03162 µM) of 0.707. For the same cell line, the relative viability (CUDC-101 + Olaparib; first compound 0.1 µM) was 0.377, the relative viability (CUDC-101 + Olaparib; first compound 0.3162 µM) was 0.237 and the relative viability (CUDC-101 + Olaparib; first compound 1 µM) was 0.119. It also gave a relative viability (NVP-TAE684 + Olaparib; first compound 0.2 µM) of 0.376, a relative viability (NVP-TAE684 + Olaparib; first compound 0.6325 µM) of 0.336 and a relative viability (NVP-TAE684 + Olaparib; first compound 2 µM) of 0.228.
